Activity calls are given as the source filed them. The calls are words filed in the database; no cut-off is given here.
What was measured:
Staphylococcus aureus [1] = assay: Antimicrobial activity against methicillin-resistant Staphylococcus aureus ASAU021 after 24 hrs by modified broth macrodilution method; settings: ASAU021, 24 h
Staphylococcus aureus [2] = assay: Bactericidal activity against recA-deficient Staphylococcus aureus ASAU022 assessed as induction of increase bacterial kill rate at 2 times MIC by time kill study; type: functional, organism-based
Staphylococcus aureus [3] = assay: Antimicrobial activity against recA-deficient Staphylococcus aureus ASAU022 after 24 hrs by modified broth macrodilution method; settings: ASAU022, 24 h
Staphylococcus aureus [4] = assay: Antimicrobial activity against recA-deficient Staphylococcus aureus ASAU022 infected in in vitro hollow fiber infection model assessed as suppression of microbial resistance at AUC/MIC ratio of 31; type: functional, organism-based
Staphylococcus aureus [5] = assay: Antimicrobial activity against recA-deficient Staphylococcus aureus ASAU022 infected in in vitro hollow fiber infection model assessed as suppression of microbial resistance at AUC/MIC ratio of >23; type: functional, organism-based
Staphylococcus aureus [6] = assay: Antimicrobial activity against methicillin-resistant Staphylococcus aureus ASAU021 infected in in vitro hollow fiber infection model assessed as suppression of microbial resistance at AUC/MIC ratio of >32; type: functional, organism-based
Staphylococcus aureus [7] = assay: Bactericidal activity against recA-deficient Staphylococcus aureus ASAU022 assessed as induction of slow growth rate at 0.5 times MIC by time kill study; type: functional, organism-based
Escherichia coli = assay: Antimicrobial activity against recA-deficient Escherichia coli MG1655 after 24 hrs by modified broth macrodilution method; type: functional; settings: MG1655, 24 h

Compound: C[C@H]1COc2c(N3CCN(C)CC3)c(F)cc3c(=O)c(C(=O)O)cn1c23.C[C@H]1COc2c(N3CCN(C)CC3)c(F)cc3c(=O)c(C(=O)O)cn1c23.O [LEVOFLOXACIN]
- MIC (Staphylococcus aureus [1]): 1 mg/L
- inhibition (Staphylococcus aureus [2]): Active
- MIC (Staphylococcus aureus [3]): 0.25 mg/L
- Activity (Staphylococcus aureus [4]): Active
- Activity (Staphylococcus aureus [5]): Active
- Activity (Staphylococcus aureus [6]): Active
- inhibition (Staphylococcus aureus [7]): Active
- MIC (Escherichia coli): 0.004 mg/L

From ChEMBL document CHEMBL1671737, “Impact of recA on levofloxacin exposure-related resistance development” (2010)
